Test results reported in patent publication US8071586B2, “Heterocyclyl compounds” (Hoffmann-La Roche Inc., priority 2008, dated 2011).

Molecular target: T1, human chemokine receptor 2 isoform B (CCR2) (Homo sapiens, UniProt P41597)
T1 sequence (P41597 1-360 isoform P41597-2): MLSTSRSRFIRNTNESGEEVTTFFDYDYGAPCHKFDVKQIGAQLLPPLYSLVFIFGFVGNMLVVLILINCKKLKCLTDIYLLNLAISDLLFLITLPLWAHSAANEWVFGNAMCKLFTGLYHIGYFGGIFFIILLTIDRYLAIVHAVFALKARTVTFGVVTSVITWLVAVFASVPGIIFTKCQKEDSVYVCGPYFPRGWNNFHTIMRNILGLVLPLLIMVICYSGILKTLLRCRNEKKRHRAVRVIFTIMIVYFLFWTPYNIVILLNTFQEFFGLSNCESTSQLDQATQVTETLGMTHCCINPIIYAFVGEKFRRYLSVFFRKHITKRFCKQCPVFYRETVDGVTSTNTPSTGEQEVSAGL
Test: Calcium mobilization assay (FLIPR, MCP-1 stimulated CHOK1-CCR2B-A5 cells)
Type: cell-based
Settings: Ca mobilisation assay, CCR2 antagonist activity, inhibition of MCP-1 induced calcium increase
Protocol: Calcium Mobilization Assay
CHOK1-CCR2B-A5 cells (from Euroscreen) stably overexpressing the human chemokine receptor 2 isoform B were cultured in Nutrient Hams F12 medium supplemented with 5% FBS, 100 U/ml penicillin, 100 μg/ml streptomycin, 400 μg/ml G418 and 5 μg/ml puromycin.
For the assay cells were grown overnight in 384-well black clear flat bottom polystyrene plates (Costar) at 37° C. at 5% CO2. After washing with DMEM, 20 mM Hepes, 2.5 mM probenecid, 0.1% BSA (DMEM assay buffer) cells were loaded with 4 μM Fluo-4 in the same DMEM assay buffer for 2 hours at 30° C. Excess dye was removed and cells were washed with DMEM assay buffer. 384-well compound plates were prepared with DMEM assay buffer/0.5% DMSO with or without various concentrations of test compounds. Usually compounds were tested for agonist and antagonist activity.
Test compounds were added to the assay plate and agonist activity was monitored as fluorescence for 80 seconds with a FLIPR (488 nm excitation; 510-570 nm emission; Molecular Devices). After 20-30 min. of incubation at 30° C., […] MCP-1 (R&D; Roche) was added and fluorescence was monitored again for 80 seconds. Increases in intracellular calcium are reported as maximum fluorescence after agonist exposure minus basal fluorescence before exposure. Antagonist activity is indicated as inhibitor concentration required for 50% inhibition of specific calcium increases.

Structure (SMILES)	IC50
C[C@H]1C(=O)N(CCCCN2CCC3(CC3)[C@H](O)C2)CCN1C(=O)Nc1cccc(Cl)c1 [Example 87, (S)-4-[4-((S)-4-Hydroxy-6-aza-spiro[2.5]oct-6-yl)-butyl]-2-methyl-3-oxo-piperazine-1-carboxylic acid (3-chloro-phenyl)-amide]	5 nM
C[C@H]1C(=O)N(CCCCN2CCC3(CC3)[C@H](O)C2)CCN1C(=O)Nc1ccc(C(F)(F)F)cc1 [Example 88, (S)-4-[4-((S)-4-Hydroxy-6-aza-spiro[2.5]oct-6-yl)-butyl]-2-methyl-3-oxo-piperazine-1-carboxylic acid (4-trifluoromethyl-phenyl)-amide]	97 nM
C[C@H]1C(=O)N([C@@H](CCN2CCC3(CC3)[C@H](O)C2)C(=O)N(C)C)CCN1C(=O)Nc1ccc(Cl)c(Cl)c1 [Example 124, (S)-4-[(S)-1-Dimethylcarbamoyl-3-((S)-4-hydroxy-6-aza-spiro[2.5]oct-6-yl)-propyl]-2-methyl-3-oxo-piperazine-1-carboxylic acid (3,4-dichloro-phenyl)-amide]	4 nM
COC[C@H](CCN1CCC2(CC2)[C@H](O)C1)N1CCN(C(=O)Nc2ccccc2)[C@@H](C)C1=O [Example 84, (S)-4-[(S)-3-((S)-4-Hydroxy-6-aza-spiro[2.5]oct-6-yl)-1-methoxymethyl-propyl]-2-methyl-3-oxo-piperazine-1-carboxylic acid phenylamide]	42 nM
CCCCCC(=O)OC[C@H](CCN1CCC2(CC2)[C@H](O)C1)N1CCN(C(=O)Nc2ccc(Cl)c(Cl)c2)[C@@H](C)C1=O [Example 116, Hexanoic acid (S)-2-[(S)-4-(3,4-dichloro-phenylcarbamoyl)-3-methyl-2-oxo-piperazin-1-yl]-4-((S)-4-hydroxy-6-aza-spiro[2.5]oct-6-yl)-butyl ester]	5 nM
C[C@H]1C(=O)N(CCCCN2CCC3(CC3)[C@H](O)C2)CCN1C(=O)Nc1cccc(-c2ccncc2)c1 [Example 95, (S)-4-[4-((S)-4-Hydroxy-6-aza-spiro[2.5]oct-6-yl)-butyl]-2-methyl-3-oxo-piperazine-1-carboxylic acid (3-pyridin-4-yl-phenyl)-amide]	565 nM
COC(=O)OC[C@H](CCN1CCC2(CC2)[C@H](O)C1)N1CCN(C(=O)Nc2cccc(Cl)c2)[C@@H](C)C1=O [Example 110, Carbonic acid (S)-2-[(S)-4-(3-chloro-phenylcarbamoyl)-3-methyl-2-oxo-piperazin-1-yl]-4-((S)-4-hydroxy-6-aza-spiro[2.5]oct-6-yl)-butyl ester methyl ester]	5 nM
COC[C@H](CCN1CCC2(CC2)[C@H](O)C1)N1CCN(C(=O)Nc2cccc(F)c2)[C@@H](C)C1=O [Example 83, (S)-4-[(S)-3-((S)-4-Hydroxy-6-aza-spiro[2.5]oct-6-yl)-1-methoxymethyl-propyl]-2-methyl-3-oxo-piperazine-1-carboxylic acid (3-fluoro-phenyl)-amide]	9 nM
C[C@H]1C(=O)N([C@@H](CCN2CCC3(CC3)[C@H](O)C2)COC(=O)C(C)(C)C)CCN1C(=O)Nc1ccc(Cl)c(Cl)c1 [Example 114, 2,2-Dimethyl-propionic acid (S)-2-[(S)-4-(3,4-dichloro-phenylcarbamoyl)-3-methyl-2-oxo-piperazin-1-yl]-4-((S)-4-hydroxy-6-aza-spiro[2.5]oct-6-yl)-butyl ester]	6 nM
C[C@H]1C(=O)N(CCCCN2CCC3(CC3)[C@H](O)C2)CCN1C(=O)Nc1cccc(-c2ccccc2)c1 [Example 93, (S)-4-[4-((S)-4-Hydroxy-6-aza-spiro[2.5]oct-6-yl)-butyl]-2-methyl-3-oxo-piperazine-1-carboxylic acid biphenyl-3-ylamide]	2 nM
C[C@H]1C(=O)N(CCCN2CCC3(CC3)[C@H](O)C2)CCN1C(=O)NCc1ccc(Cl)cc1 [Example 77, (S)-4-[3-((S)-4-Hydroxy-6-aza-spiro[2.5]oct-6-yl)-propyl]-2-methyl-3-oxo-piperazine-1-carboxylic acid 4-chloro-benzylamide]	110 nM
C[C@H]1C(=O)N(C[C@@H](O)CN2CCC3(CC3)[C@H](O)C2)CCN1C(=O)Nc1cccc(Cl)c1 [Example 121, (S)-4-[(S)-2-Hydroxy-3-((S)-4-hydroxy-6-aza-spiro[2.5]oct-6-yl)-propyl]-2-methyl-3-oxo-piperazine-1-carboxylic acid (3-chloro-phenyl)-amide]	6 nM

Continued, values first:

IC50	Structure (SMILES)
7 nM	C[C@H]1C[C@H](O)CN(CCCN2CCN(C(=O)Nc3ccc(Cl)c(Cl)c3)[C@@H](C)C2=O)C1 [Example 46, (S)-4-[3-((3S,5S)-3-Hydroxy-5-methyl-piperidin-1-yl)-propyl]-2-methyl-3-oxo-piperazine-1-carboxylic acid (3,4-dichloro-phenyl)-amide]
250 nM	O=C(NCc1ccc(Cl)c(Cl)c1)N1CCC(=O)N([C@H](CO)CCN2CCC3(CC3)[C@H](O)C2)CC1 [Example 51, 4-[(S)-3-((S)-4-hydroxy-6-aza-spiro[2.5]oct-6-yl)-1-hydroxymethyl-propyl]-5-oxo-[1,4]diazepane-1-carboxylic acid 3,4-dichloro-benzylamide]
380 nM	C[C@@H]1CN(CCCN2CCCCC2)C(=O)CCN1C(=O)Nc1ccc(Cl)c(Cl)c1 [Example 25, (R)-2-Methyl-5-oxo-4-(3-piperidin-1-yl-propyl)-[1,4]diazepane-1-carboxylic acid (3,4-dichloro-phenyl)-amide]
2 nM	CC(=O)OC[C@H](CCN1CCC2(CC2)[C@H](O)C1)N1CCN(C(=O)Nc2ccc(Cl)c(Cl)c2)[C@@H](C)C1=O [Example 108, Acetic acid (S)-2-[(S)-4-(3,4-dichloro-phenylcarbamoyl)-3-methyl-2-oxo-piperazin-1-yl]-4-((S)-4-hydroxy-6-aza-spiro[2.5]oct-6-yl)-butyl ester]
2 nM	C[C@H]1C(=O)N(CCCN2CCC3(CC3)[C@H](O)C2)CCN1C(=S)Nc1ccc(Cl)c(Cl)c1 [Example 71, (S)-4-[3-((S)-4-Hydroxy-6-aza-spiro[2.5]oct-6-yl)-propyl]-2-methyl-3-oxo-piperazine-1-carbothioic acid (3,4-dichloro-phenyl)-amide]
1 nM	COC[C@H](CCN1CCC2(CC2)[C@H](O)C1)N1CCN(C(=O)Nc2ccc(Cl)c(Cl)c2)[C@@H](C)C1=O [Example 80, (S)-4-[(S)-3-((S)-4-Hydroxy-6-aza-spiro[2.5]oct-6-yl)-1-methoxymethyl-propyl]-2-methyl-3-oxo-piperazine-1-carboxylic acid (3,4-dichloro-phenyl)-amide]
1 nM	C[C@H]1C(=O)N([C@H](CO)CCN2CCC3(CC3)[C@H](O)C2)CCN1C(=O)Nc1ccc(Cl)c(Cl)c1 [Example 106, (S)-4-[(S)-3-((S)-4-Hydroxy-6-aza-spiro[2.5]oct-6-yl)-1-hydroxymethyl-propyl]-2-methyl-3-oxo-piperazine-1-carboxylic acid (3,4-dichloro-phenyl)-amide]
9 nM	COC[C@H](CCN1CCCCC1)N1CCN(C(=O)Nc2ccc(Cl)c(Cl)c2)[C@@H](C)C1=O [Example 81, (S)-4-((S)-1-Methoxymethyl-3-piperidin-1-yl-propyl)-2-methyl-3-oxo-piperazine-1-carboxylic acid (3,4-dichloro-phenyl)-amide]
370 nM	O=C(Nc1ccc(Cl)c(Cl)c1)N1CCN(CCCN2CCCCC2)S(=O)(=O)CC1 [Example 21, 1,1-Dioxo-2-(3-piperidin-1-yl-propyl)-[1,2,5]thiadiazepane-5-carboxylic acid (3,4-dichloro-phenyl)-amide]
2 nM	C[C@H]1C(=O)N(CCCN2CCC3(CC3)[C@H](O)C2)CCN1C(=O)Nc1ccc(Cl)c(Cl)c1 [Example 45, (S)-4-[3-((S)-4-Hydroxy-6-aza-spiro[2.5]oct-6-yl)-propyl]-2-methyl-3-oxo-piperazine-1-carboxylic acid (3,4-dichloro-phenyl)-amide]
2 nM	C[C@H]1C(=O)N(C[C@@H](O)CN2CCC3(CC3)[C@H](O)C2)CCN1C(=O)Nc1ccc(Cl)c(Cl)c1 [Example 120, (S)-4-[(S)-2-Hydroxy-3-((S)-4-hydroxy-6-aza-spiro[2.5]oct-6-yl)-propyl]-2-methyl-3-oxo-piperazine-1-carboxylic acid (3,4-dichloro-phenyl)-amide]
3 nM	C[C@@H]1CN(CCCN2CCC3(CC3)[C@H](O)C2)C(=O)CCN1C(=O)Nc1ccc(Cl)c(Cl)c1 [Example 58, (R)-4-[3-((S)-4-Hydroxy-6-aza-spiro[2.5]oct-6-yl)-propyl]-2-methyl-5-oxo-[1,4]diazepane-1-carboxylic acid (3,4-dichloro-phenyl)-amide]
770 nM	O=S1(=O)CCN(C(=S)Nc2ccc(Cl)c(Cl)c2)CCN1CCCN1CCCCC1 [Example 22, 1,1-Dioxo-2-(3-piperidin-1-yl-propyl)-[1,2,5]thiadiazepane-5-carbothioic acid (3,4-dichloro-phenyl)-amide]
